Where two headings read alike, the source gives them in different places.
What was measured:
HCV replicon cells = experiment: HCV replicon FRET assay; format: cell-based; settings: Hepatitis C virus
Text: FRET Assay Preparation. To perform the HCV FRET screening assay, 96-well cell culture plates were used. The FRET peptide (Anaspec, Inc.) (Taliani et al., Anal. Biochem. 1996, 240, 60-67) contains a fluorescence donor, EDANS, near one end of the peptide and an acceptor, DABCYL, near the other end. The fluorescence of the peptide is quenched by […] resonance energy transfer (RET) between the donor and the acceptor, but as the NS3 protease cleaves the peptide the products are released from RET quenching and the fluorescence of the donor becomes apparent. The assay reagent was made as follows: 5× cell Luciferase cell culture lysis reagent from Promega (#E153A) diluted to 1× with dH2O, NaCl added to 150 mM final, the FRET peptide diluted to 20 μM final from a 2 mM stock.
To prepare plates, HCV replicon cells, with or without a Renilla luciferase reporter gene, were trypsinized and placed into each well of a 96-well plate with titrated test compounds added in columns 3 through 12; columns 1 and 2 contained a control compound (HCV protease inhibitor), and the bottom row contained cells without compound. The plates were then placed in a CO2 incubator at 37° C.
Assays. Subsequent to addition of the test compounds described above (FRET Assay Preparation), at various times the plate was removed and Alamar blue solution (Trek Diagnostics, #00-100) was added per well as a measure of cellular toxicity. After reading in a Cytoflour 4000 instrument (PE Biosystems), plates were rinsed with PBS and then used for FRET assay by the addition of 30 ul of the FRET peptide assay reagent described above (FRET Assay Preparation) per well. The plate was then placed into the Cytoflour 4000 instrument which had been set to 340 excite/490 emission, automatic mode for 20 cycles and the plate read in a kinetic mode. Typically, the signal to noise using an endpoint analysis after the reads was at least three-fold. Alternatively, after Alamar blue reading, plates were rinsed with PBS, 50 ul of DMEM (high glucose) without phenol red was added and plates were then used for luciferase assay using the Promega Dual-Glo Luciferase Assay System.
Compound analysis was determined by quantification of the relative HCV replicon inhibition and the relative cytotoxicity values. To calculate cytoxicity values, the average Alamar Blue fluorescence signals from the control wells were set as 100% non-toxic. The individual signals in each of the compound test wells were then divided by the average control signal and multiplied by 100% to determine […]. To calculate the HCV replicon inhibition values, an average background value was obtained from the two wells containing the highest amount of HCV protease inhibitor at the end of the assay period. These numbers were similar to those obtained from naïve Huh-7 cells.
The background numbers were then subtracted from the average signal obtained from the control wells and this number was used as 100% activity. The individual signals in each of the compound test wells were then divided by the averaged control values after background subtraction and multiplied by 100% to determine percent activity. EC50 values for a protease inhibitor titration were calculated as the concentration which caused a 50% reduction in FRET or luciferase activity. The two numbers generated for the compound plate, percent cytoxicity and percent activity were used to determine compounds of interest for further analysis.

HCV NS5B = biological target: T1, HCV NS5B (Hepatitis C virus genotype 1b, UniProt Q9WMX2); experiment: Modified HCV NS5B RdRp enzyme assay (preincubation protocol); format: biochemical
T1 construct: The cDNA encoding the NS5B protein of HCV, genotype 1b; made in house; host or cells: E. coli BL21(DE3)
Procedure: HCV NS5B RdRp cloning, expression, and purification. The cDNA encoding the NS5B protein of HCV, genotype 1b, was cloned into the pET21a expression vector. The protein was expressed with an 18 amino acid C-terminal truncation to enhance the solubility. The E. coli competent cell line BL21(DE3) was used for expression of the protein. Cultures were grown at 37° C. for ˜4 hours until the cultures reached an optical density of 2.0 at 600 nm. The cultures were cooled to 20° C. and induced with 1 mM IPTG. Fresh ampicillin was added to a final concentration of 50 μg/ml and the cells were grown overnight at 20° C.
Cell pellets (3 L) were lysed for purification to yield 15-24 mgs of purified NS5B. The lysis buffer consisted of 20 mM Tris-HCl, pH 7.4, 500 mM NaCl, 0.5% triton X-100, 1 mM DTT, 1 mM EDTA, 20% glycerol, 0.5 mg/ml lysozyme, 10 mM MgCl2, 15 ug/ml deoxyribonuclease I, and Complete™ protease inhibitor tablets (Roche). After addition of the lysis buffer, frozen cell pellets were resuspended using a tissue homogenizer. To reduce the viscosity of the sample, aliquots of the lysate were sonicated on ice using a microtip attached to a Branson sonicator. The sonicated lysate was centrifuged at 100,000×g for 1 hr at 4° C. and filtered through a 0.2 μm filter unit (Corning).
The protein was purified using three sequential chromatography steps: Heparin sepharose CL-6B, polyU sepharose 4B, and Hitrap SP sepharose (Pharmacia). The chromatography buffers were identical to the lysis buffer but contained no lysozyme, deoxyribonuclease I, MgCl2 or protease inhibitor and the NaCl concentration of the buffer was adjusted according to the requirements for charging the protein onto the column. Each column was eluted with a NaCl gradient which varied in length from 5-50 column volumes depending on the column type. After the final chromatography step, the resulting purity of the enzyme is >90% based on SDS-PAGE analysis. The enzyme was aliquoted and stored at −80° C.
Standard HCV NS5B RdRp enzyme assay. HCV RdRp genotype 1b assays were run in a final volume of 60 μl in 96 well plates (Costar 3912). The assay buffer is composed of 20 mM Hepes, pH 7.5, 2.5 mM KCl, 2.5 mM MgCl2, 1 mM DTT, 1.6 U RNAse inhibitor (Promega N2515), 0.1 mg/ml BSA (Promega R3961), and 2% glycerol. All compounds were serially diluted (3-fold) in DMSO and diluted further in water such that the final concentration of DMSO in the assay was 2%. HCV RdRp genotype 1b enzyme was used at a final concentration of 28 nM. A polyA template was used at 6 nM, and a biotinylated oligo-dT12 primer was used at 180 nM final concentration. Template was obtained commercially (Amersham 27-4110). Biotinylated primer was prepared by Sigma Genosys. 3H-UTP was used at 0.6 μCi (0.29 μM total UTP). Reactions were initiated by the addition of enzyme, incubated at 30° C. for 60 min, and stopped by adding 25 μl of 50 mM EDTA containing SPA beads (4 μg/μl, Amersham RPNQ 0007). Plates were read on a Packard Top Count NXT after >1 hr incubation at room temperature.
Modified HCV NS5B RdRp enzyme assay. A modified enzyme assay was performed essentially as described for the standard enzyme assay except for the following: The biotinylated oligo dT12 primer was precaptured on streptavidin-coated SPA beads by mixing primer and beads in assay buffer and incubating at room temperature for one hour. Unbound primer was removed after centrifugation. The primer-bound beads were resuspended in 20 mM Hepes buffer, pH 7.5 and used in the assay at final concentrations of 20 nM primer and 0.67 μg/μl beads. Order of addition in the assay: enzyme (14 nM) was added to diluted compound followed by the addition of a mixture of template (0.2 nM), 3H-UTP (0.6 μCi, 0.29 μM), and primer-bound beads, to initiate the reaction; concentrations given are final. Reactions were allowed to proceed for 4 hours at 30° C.
IC50 values for compounds were determined using seven different [I]. […]

[1] = preincubation protocol, read-out: IC50

T1 sequence (Q9WMX2 2420-2992): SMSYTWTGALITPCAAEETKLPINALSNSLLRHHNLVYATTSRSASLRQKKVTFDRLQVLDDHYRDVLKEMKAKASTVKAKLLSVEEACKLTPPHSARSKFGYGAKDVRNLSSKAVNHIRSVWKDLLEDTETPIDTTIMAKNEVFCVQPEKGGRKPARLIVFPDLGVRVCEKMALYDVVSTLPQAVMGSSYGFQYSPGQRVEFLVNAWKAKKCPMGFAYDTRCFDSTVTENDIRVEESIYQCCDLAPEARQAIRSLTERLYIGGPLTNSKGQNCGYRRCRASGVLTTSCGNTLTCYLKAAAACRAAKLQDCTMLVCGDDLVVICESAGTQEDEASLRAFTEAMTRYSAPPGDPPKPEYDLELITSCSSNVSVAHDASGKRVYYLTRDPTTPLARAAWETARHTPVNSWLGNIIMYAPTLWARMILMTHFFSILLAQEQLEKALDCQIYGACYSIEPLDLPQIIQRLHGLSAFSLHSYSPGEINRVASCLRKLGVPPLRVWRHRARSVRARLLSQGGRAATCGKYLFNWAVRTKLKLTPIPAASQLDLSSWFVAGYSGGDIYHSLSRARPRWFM

| Structure (SMILES) | EC50 (HCV replicon cells; FRET assay, read-out: EC50) | IC50 (HCV NS5B; [1]) | EC50 (HCV replicon cells) | IC50 (HCV NS5B) |
| --- | --- | --- | --- | --- |
| COc1ccc2c(c1)C=C(c1cccc(OCCN3CCOCC3)c1)Cn1c-2c(C2CCCCC2)c2ccc(C(=O)NS(=O)(=O)C(C)C)cc21 | > 0.5 µM | 0.00458 to 0.5 µM |  |  |
| COc1ccc2c(c1)CC(c1cccc(OCCN(C)C)c1)Cn1c-2c(C2CCCCC2)c2ccc(C(=O)NS(=O)(=O)C(C)C)cc21 (centres unmarked) | 0.00458 to 0.5 µM | 0.00458 to 0.5 µM |  |  |
| COc1ccc2c(c1)CC(c1cccc(OCCN3CCOCC3)c1)Cn1c-2c(C2CCCCC2)c2ccc(C(=O)NS(=O)(=O)C(C)C)cc21 (centres unmarked) | 0.00458 to 0.5 µM | 0.00458 to 0.5 µM |  |  |
| COc1ccc2c(c1)C=C(c1ccccc1C(F)(F)F)Cn1c-2c(C2CCCCC2)c2ccc(C(=O)NS(=O)(=O)C(C)C)cc21 | > 0.5 µM | 0.00458 to 0.5 µM |  |  |
| COc1ccc2c(c1)C=C(c1ccccc1S(=O)(=O)N1CCCC1)Cn1c-2c(C2CCCCC2)c2ccc(C(=O)NS(=O)(=O)C(C)C)cc21 | > 0.5 µM | 0.00458 to 0.5 µM |  |  |
| COc1ccc2c(c1)C=C(c1ccccc1OC(F)(F)C(F)(F)F)Cn1c-2c(C2CCCCC2)c2ccc(C(=O)NS(=O)(=O)C(C)C)cc21 | > 0.5 µM | 0.00458 to 0.5 µM |  |  |
| COc1ccc2c(c1)C=C(c1c(F)cccc1C(F)(F)F)Cn1c-2c(C2CCCCC2)c2ccc(C(=O)NS(=O)(=O)C(C)C)cc21 | 0.00458 to 0.5 µM | 0.00458 to 0.5 µM |  |  |
| COc1ccc2c(c1)C=C(c1cccc3c1OCCO3)Cn1c-2c(C2CCCCC2)c2ccc(C(=O)NS(=O)(=O)C(C)C)cc21 | > 0.5 µM | 0.00458 to 0.5 µM |  |  |
| COc1ccc2c(c1)C=C(c1cccc3c1OC(F)(F)O3)Cn1c-2c(C2CCCCC2)c2ccc(C(=O)O)cc21 | > 0.5 µM | 0.00458 to 0.5 µM |  |  |
| COc1ccc2c(c1)C=C(c1cc([N+](=O)[O-])c3[nH]ccc3c1)Cn1c-2c(C2CCCCC2)c2ccc(C(=O)O)cc21 | > 0.5 µM | 0.00458 to 0.5 µM |  |  |
| COc1ccc2c(c1)C=C(c1cnc(OC)c3[nH]ccc13)Cn1c-2c(C2CCCCC2)c2ccc(C(=O)O)cc21 | 0.00458 to 0.5 µM | 0.00458 to 0.5 µM |  |  |
| COc1ccc2c(c1)C=C(c1ccc3sc(C)nc3c1)Cn1c-2c(C2CCCCC2)c2ccc(C(=O)O)cc21 | > 0.5 µM | 0.00458 to 0.5 µM |  |  |
| COc1ccc2c(c1)C=C(c1ccccc1C(=O)N1C3CCC1CN(C)C3)Cn1c-2c(C2CCCCC2)c2ccc(C(=O)OC(C)(C)C)cc21 |  |  | > 0.5 µM | > 0.5 µM |
| COc1ccc2c(c1)C=C(c1ccccc1C(=O)N1C3CCC1CN(C)C3)Cn1c-2c(C2CCCCC2)c2ccc(C(=O)O)cc21 |  |  | 0.00458 to 0.5 µM | 0.00458 to 0.5 µM |
| COc1ccc2c(c1)C=C(c1ccccc1C(=O)N1C3CCC1CN(C)C3)Cn1c-2c(C2CCCCC2)c2ccc(C(=O)NS(=O)(=O)C(C)C)cc21 |  |  | 0.00458 to 0.5 µM | 0.00458 to 0.5 µM |
| COc1ccc2c(c1)C=C(c1ccccc1C(=O)N1CCOCC1)Cn1c-2c(C2CCCCC2)c2ccc(C(=O)OC(C)(C)C)cc21 | > 0.5 µM | > 0.5 µM |  |  |

From US7642251B2, “Compounds for the treatment of hepatitis C” (Bristol-Myers Squibb Company, priority 2007, dated 2010)
